According to publication PMC12325182, “Discovery of novel and potent celastrol derivatives as PRDX1 inhibitors for cancer therapy through structure-based virtual screening” (Frontiers in Pharmacology, 2025):

Columns and labels:
Test in all cases: Kinase selectivity assay
Assay type in all cases: biochemical
[1] = target: JAK1 (Homo sapiens, UniProt P23458); settings: target JAK1; read-out: CP1 IC50
Description: (§1) The selectivity of CP1 for PRDX1 was evaluated through kinase selectivity assays against other PRDX family members and a panel of kinases. The experiments were conducted by ICE Biosciences (Beijing, China).

[2] = target: T1, EPHA2 (Homo sapiens, UniProt P29317); settings: target EPHA2; read-out: CP1 IC50
T1 construct: ICE Biosciences (Beijing, China), ran the assays
Description: as §1

[3] = target: T2, DDR1 (Homo sapiens, UniProt Q08345); settings: target DDR1; read-out: CP1 IC50
T2 construct: ICE Biosciences (Beijing, China), ran the assays
T2 sequence (Q08345 19-913): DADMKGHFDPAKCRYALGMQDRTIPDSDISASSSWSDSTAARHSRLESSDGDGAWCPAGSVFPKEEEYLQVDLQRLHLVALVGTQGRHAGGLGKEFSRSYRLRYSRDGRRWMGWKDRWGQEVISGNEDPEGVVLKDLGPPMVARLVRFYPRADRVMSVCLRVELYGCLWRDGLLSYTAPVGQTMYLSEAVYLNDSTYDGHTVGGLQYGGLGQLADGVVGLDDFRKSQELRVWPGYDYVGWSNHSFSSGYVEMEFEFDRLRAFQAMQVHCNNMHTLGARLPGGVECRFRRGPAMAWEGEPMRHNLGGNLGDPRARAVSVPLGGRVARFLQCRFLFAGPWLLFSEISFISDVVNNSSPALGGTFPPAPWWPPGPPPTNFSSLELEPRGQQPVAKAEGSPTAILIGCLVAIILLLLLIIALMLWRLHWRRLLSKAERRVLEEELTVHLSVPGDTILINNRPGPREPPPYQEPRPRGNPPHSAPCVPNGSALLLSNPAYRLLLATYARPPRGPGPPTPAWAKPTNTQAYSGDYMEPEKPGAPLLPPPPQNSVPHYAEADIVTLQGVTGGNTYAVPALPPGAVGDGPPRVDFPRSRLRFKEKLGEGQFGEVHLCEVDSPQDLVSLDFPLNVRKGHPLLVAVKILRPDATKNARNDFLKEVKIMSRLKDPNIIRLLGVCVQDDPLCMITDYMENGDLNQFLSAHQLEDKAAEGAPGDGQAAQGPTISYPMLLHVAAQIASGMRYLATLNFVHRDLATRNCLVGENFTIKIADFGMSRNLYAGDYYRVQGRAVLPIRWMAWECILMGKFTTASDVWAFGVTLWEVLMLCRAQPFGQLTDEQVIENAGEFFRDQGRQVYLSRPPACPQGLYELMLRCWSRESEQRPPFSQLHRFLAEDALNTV
Description: as §1

[4] = target: T3, FYN (Homo sapiens, UniProt P06241); settings: target FYN; read-out: CP1 IC50
T3 construct: assay run by ICE Biosciences (Beijing, China)
T3 sequence (P06241 whole entry): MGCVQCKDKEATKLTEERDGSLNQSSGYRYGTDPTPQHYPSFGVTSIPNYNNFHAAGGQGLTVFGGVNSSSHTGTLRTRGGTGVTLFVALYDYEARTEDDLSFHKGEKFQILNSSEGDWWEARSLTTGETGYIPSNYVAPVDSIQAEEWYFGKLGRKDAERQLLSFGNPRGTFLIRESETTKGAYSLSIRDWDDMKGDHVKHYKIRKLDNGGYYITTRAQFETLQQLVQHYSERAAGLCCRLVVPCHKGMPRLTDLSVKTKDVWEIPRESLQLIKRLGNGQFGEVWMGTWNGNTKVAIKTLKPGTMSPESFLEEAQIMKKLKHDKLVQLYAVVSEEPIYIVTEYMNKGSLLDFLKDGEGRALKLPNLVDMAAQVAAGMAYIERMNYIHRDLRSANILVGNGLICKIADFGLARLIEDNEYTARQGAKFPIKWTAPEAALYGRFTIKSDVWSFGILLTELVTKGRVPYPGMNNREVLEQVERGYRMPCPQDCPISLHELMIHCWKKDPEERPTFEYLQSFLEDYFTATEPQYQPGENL
Description: as §1

[5] = target: T4, YES1 (Homo sapiens, UniProt P07947); settings: target YES1; read-out: CP1 IC50
T4 construct: ICE Biosciences (Beijing, China), a contract laboratory that ran the assay
Description: as §1

[6] = target: T5, ALK (Homo sapiens, UniProt Q9UM73); settings: target ALK; read-out: CP1 IC50
T5 construct: ICE Biosciences (Beijing, China), ran the assays
T5 sequence (Q9UM73 19-1620): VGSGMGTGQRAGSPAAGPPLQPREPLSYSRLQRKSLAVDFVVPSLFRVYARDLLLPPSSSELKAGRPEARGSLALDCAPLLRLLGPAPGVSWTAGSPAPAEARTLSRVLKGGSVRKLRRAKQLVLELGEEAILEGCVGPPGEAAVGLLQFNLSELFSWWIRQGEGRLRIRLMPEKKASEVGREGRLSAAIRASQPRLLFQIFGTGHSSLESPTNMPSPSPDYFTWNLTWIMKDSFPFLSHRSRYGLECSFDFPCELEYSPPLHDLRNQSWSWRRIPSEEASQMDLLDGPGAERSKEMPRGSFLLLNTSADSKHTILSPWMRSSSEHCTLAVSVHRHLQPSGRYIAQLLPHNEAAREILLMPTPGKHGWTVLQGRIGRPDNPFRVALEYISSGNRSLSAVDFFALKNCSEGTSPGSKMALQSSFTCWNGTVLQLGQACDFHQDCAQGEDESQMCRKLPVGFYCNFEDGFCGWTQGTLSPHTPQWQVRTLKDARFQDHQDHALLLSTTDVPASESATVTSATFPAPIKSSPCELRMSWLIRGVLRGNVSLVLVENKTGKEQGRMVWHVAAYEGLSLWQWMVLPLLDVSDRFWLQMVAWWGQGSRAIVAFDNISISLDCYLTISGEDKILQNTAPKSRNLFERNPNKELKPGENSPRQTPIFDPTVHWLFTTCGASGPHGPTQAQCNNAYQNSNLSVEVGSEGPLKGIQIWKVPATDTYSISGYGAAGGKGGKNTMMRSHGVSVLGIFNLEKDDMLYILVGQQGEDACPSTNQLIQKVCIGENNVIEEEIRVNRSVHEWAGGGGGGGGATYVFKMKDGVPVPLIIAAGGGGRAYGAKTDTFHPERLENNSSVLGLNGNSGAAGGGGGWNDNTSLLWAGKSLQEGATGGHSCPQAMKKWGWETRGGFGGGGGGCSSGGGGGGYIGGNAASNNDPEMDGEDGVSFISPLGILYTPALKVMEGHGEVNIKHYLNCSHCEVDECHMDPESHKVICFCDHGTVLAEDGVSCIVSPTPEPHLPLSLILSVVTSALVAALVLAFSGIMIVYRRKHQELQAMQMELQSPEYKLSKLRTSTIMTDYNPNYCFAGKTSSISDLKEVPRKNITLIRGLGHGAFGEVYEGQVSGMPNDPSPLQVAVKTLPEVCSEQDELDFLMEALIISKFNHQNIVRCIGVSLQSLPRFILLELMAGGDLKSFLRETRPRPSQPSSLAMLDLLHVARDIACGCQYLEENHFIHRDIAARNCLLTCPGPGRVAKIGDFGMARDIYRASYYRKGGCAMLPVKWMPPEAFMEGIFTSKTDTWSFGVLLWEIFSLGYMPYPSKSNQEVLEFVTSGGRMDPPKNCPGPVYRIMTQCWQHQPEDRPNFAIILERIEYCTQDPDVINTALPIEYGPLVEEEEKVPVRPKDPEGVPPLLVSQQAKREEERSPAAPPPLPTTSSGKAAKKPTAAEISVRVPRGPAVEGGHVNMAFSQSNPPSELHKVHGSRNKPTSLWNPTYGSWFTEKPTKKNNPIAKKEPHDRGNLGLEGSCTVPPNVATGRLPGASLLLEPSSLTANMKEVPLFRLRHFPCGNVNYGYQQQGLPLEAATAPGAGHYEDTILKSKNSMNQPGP
Description: as §1

[7] = target: T6, EPHA1 (Homo sapiens, UniProt P21709); settings: target EPHA1; read-out: CP1 IC50
T6 construct: ICE Biosciences (Beijing, China), ran the assays
Description: as §1

[8] = target: EPHB4 (Homo sapiens, UniProt P54760); settings: target EPHB4; read-out: CP1 IC50
Description: as §1

[9] = target: INSRR (Homo sapiens, UniProt P14616); settings: target INSRR; read-out: CP1 IC50
Description: as §1

[10] = target: EPHB3 (Homo sapiens, UniProt P54753); settings: target EPHB3; read-out: CP1 IC50
Description: as §1

[11] = target: T7, PTK2 (Homo sapiens, UniProt Q05397); settings: target PTK2; read-out: CP1 IC50
T7 construct: assay run by ICE Biosciences (Beijing, China)
Description: as §1

[12] = target: JAK3 (Homo sapiens, UniProt P52333); settings: target JAK3; read-out: CP1 IC50
Description: as §1

[13] = target: T8, PDGFRA (Homo sapiens, UniProt P16234); settings: target PDGFRA; read-out: CP1 IC50
T8 construct: assay run by ICE Biosciences (Beijing, China)
Description: as §1

[14] = target: T9, BLK (Homo sapiens, UniProt P51451); settings: target BLK; read-out: CP1 IC50
T9 construct: ICE Biosciences (Beijing, China), ran the assays
Description: as §1

[15] = target: ERBB2 (Homo sapiens, UniProt P04626); settings: target ERBB2; read-out: CP1 IC50
Description: as §1

[16] = target: T10, PRDX2 (Homo sapiens, UniProt P32119); settings: target PRDX2; read-out: CP1 IC50
T10 construct: ICE Biosciences (Beijing, China), ran the assays
T10 sequence (P32119 whole entry): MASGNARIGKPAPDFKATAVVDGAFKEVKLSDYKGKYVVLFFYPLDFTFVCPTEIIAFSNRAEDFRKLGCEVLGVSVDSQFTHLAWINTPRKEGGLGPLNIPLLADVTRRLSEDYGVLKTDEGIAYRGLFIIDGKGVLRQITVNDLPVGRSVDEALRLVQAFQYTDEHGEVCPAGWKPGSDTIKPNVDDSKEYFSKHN
Description: as §1

[17] = target: INSR (Homo sapiens, UniProt P06213); settings: target INSR; read-out: CP1 IC50
Description: as §1

[18] = target: T11, SRMS (Homo sapiens, UniProt Q9H3Y6); settings: target SRMS; read-out: CP1 IC50
T11 construct: assay run by ICE Biosciences (Beijing, China)
Description: as §1

[19] = target: T12, FGR (Homo sapiens, UniProt P09769); settings: target FGR; read-out: CP1 IC50
T12 construct: assay run by ICE Biosciences (Beijing, China)
Description: as §1

[20] = target: T13, FRK (Homo sapiens, UniProt P42685); settings: target FRK; read-out: CP1 IC50
T13 construct: assay run by ICE Biosciences (Beijing, China)
Description: as §1

[21] = target: LYN (Homo sapiens, UniProt P07948); settings: target LYN; read-out: CP1 IC50
Description: as §1

[22] = target: T14, FGFR1 (Homo sapiens, UniProt P11362); settings: target FGFR1; read-out: CP1 IC50
T14 construct: assay run by ICE Biosciences (Beijing, China)
Description: as §1

[23] = target: FER (Homo sapiens, UniProt P16591); settings: target FER; read-out: CP1 IC50
Description: as §1

[24] = target: T15, FGFR2 (Homo sapiens, UniProt P21802); settings: target FGFR2; read-out: CP1 IC50
T15 construct: assay run by ICE Biosciences (Beijing, China)
Description: as §1

[25] = target: T16, TNK2 (Homo sapiens, UniProt Q07912); settings: target TNK2; read-out: CP1 IC50
T16 construct: assay run by ICE Biosciences (Beijing, China)
Description: as §1

[26] = target: JAK2 (Homo sapiens, UniProt O60674); settings: target JAK2; read-out: CP1 IC50
Chain of JAK2 (O60674 whole entry): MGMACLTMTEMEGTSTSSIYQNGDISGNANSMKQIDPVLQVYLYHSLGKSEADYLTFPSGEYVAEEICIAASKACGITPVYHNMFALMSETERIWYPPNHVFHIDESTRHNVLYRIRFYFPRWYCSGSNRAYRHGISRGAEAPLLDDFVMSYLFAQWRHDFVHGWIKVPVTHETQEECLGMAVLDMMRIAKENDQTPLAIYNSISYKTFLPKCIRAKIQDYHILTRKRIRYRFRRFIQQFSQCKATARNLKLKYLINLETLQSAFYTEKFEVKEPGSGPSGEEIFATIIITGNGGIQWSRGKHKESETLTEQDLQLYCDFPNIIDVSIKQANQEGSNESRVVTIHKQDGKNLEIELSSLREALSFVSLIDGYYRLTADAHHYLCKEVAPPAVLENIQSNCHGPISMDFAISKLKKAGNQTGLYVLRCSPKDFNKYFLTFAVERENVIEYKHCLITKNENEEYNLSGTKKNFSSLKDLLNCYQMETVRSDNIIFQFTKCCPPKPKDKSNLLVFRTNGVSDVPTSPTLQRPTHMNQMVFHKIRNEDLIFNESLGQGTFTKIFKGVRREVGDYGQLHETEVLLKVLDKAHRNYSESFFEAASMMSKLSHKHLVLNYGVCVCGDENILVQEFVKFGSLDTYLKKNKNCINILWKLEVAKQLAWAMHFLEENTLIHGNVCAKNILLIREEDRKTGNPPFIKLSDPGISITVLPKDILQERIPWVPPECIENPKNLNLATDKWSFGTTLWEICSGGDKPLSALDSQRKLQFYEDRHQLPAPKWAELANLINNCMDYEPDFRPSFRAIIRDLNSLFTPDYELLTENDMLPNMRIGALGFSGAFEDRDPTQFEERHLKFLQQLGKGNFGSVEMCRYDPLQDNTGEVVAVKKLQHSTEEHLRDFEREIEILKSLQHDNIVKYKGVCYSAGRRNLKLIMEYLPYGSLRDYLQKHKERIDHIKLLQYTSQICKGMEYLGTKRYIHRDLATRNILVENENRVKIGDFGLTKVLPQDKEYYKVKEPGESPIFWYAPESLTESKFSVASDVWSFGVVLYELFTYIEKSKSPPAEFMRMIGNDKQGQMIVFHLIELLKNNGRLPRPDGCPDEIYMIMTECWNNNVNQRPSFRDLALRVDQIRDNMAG
Description: as §1

[27] = target: EPHB2 (Homo sapiens, UniProt P29323); settings: target EPHB2; read-out: CP1 IC50
Description: as §1

[28] = target: T17, PRDX3 (Homo sapiens, UniProt P30048); settings: target PRDX3; read-out: CP1 IC50
T17 construct: ICE Biosciences (Beijing, China), ran the assays
Description: as §1

[29] = target: T18, SRC (Homo sapiens, UniProt P12931); settings: target SRC; read-out: CP1 IC50
T18 construct: assay run by ICE Biosciences (Beijing, China)
T18 sequence (P12931 whole entry): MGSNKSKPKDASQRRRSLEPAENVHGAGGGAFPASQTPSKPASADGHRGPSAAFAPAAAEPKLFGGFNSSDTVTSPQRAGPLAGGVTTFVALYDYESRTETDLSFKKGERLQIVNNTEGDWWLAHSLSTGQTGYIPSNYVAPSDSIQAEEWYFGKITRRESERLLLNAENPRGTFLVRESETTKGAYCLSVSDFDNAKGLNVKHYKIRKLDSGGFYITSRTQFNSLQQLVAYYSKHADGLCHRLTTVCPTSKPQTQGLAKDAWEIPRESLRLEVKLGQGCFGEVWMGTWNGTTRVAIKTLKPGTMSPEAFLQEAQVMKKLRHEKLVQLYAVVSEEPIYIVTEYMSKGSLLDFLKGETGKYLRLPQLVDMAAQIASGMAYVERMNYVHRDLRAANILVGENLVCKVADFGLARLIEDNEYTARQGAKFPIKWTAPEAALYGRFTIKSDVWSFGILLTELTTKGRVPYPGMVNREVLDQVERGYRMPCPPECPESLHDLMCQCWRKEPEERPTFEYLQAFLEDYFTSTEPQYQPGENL
Description: as §1

[30] = target: T19, DDR2 (Homo sapiens, UniProt Q16832)
T19 construct: ICE Biosciences (Beijing, China), ran the assays
Description: as §1

[31] = target: ITK (Homo sapiens, UniProt Q08881); settings: target ITK; read-out: CP1 IC50
Description: as §1

[32] = target: MST1R (Homo sapiens, UniProt Q04912); settings: target MST1R; read-out: CP1 IC50
Description: as §1

[33] = target: T20, EGFR (Homo sapiens, UniProt P00533); settings: target EGFR; read-out: CP1 IC50
T20 construct: ICE Biosciences (Beijing, China), ran the assays
Description: as §1

[34] = target: T21, TEK (Homo sapiens, UniProt Q02763); settings: target TEK; read-out: CP1 IC50
T21 construct: assay run by ICE Biosciences (Beijing, China)
Description: as §1

Measured: IC50

CC1=C(CC(=O)/C=C/c2cccc(CO)c2)C(=O)C=C2C1=CC=C1[C@@]2(C)CC[C@@]2(C)C3C[C@](C)(C(=O)CCc4nc(C(O)C(O)O)c(C)nc4C)CC[C@]3(C)CC[C@]12C (stereo partly shown) [CP1]
> 30 µM: all assays above
